# Reference: patent publication US11832638B2, “N-acyl derivatives of gamma amino-butyric acid and beta alanine as food flavouring compounds” (GIVAUDAN SA, priority 2012, dated 2023)
# Experiments:
# [1] = Tasting in pilaf (cooked rice with flavoured butter); conditions: standard cooked rice with 10% of the C18:2-gaba flavoured butter
# Description: The following formulations were prepared and tasted by trained panelists.
# [2] = Tasting of chicken filet fried in oil; conditions: 2.0 PPM in 135 gram frying oil (82% fat)
# Description: Differentiator high temperature 100-250 degrees Celsius in a frying in oil process
# C18:2-gaba @ 2.0 PPM in 135 gram frying oil (blue band 82% Fat) 450 gram chicken filet 2 minutes high fire and 5 minutes medium fire.
# [3] = Yoghurt cream flavoured non-sweetened, different fat levels; conditions: 2 ppm, cream flavour 0.03%
# Description: Yoghurt Cream Flavoured Non-sweetened And Different Fat Levels
# In a Yoghurt containing 0% 1.5% and 3% fat, flavoured with proprietary cream flavour dosed at 0.03%, C18:2-gaba was added at 2 ppm. Samples were evaluated by expert tasters. Tasters were asked to describe the samples focusing on authentic taste, mouthfeel, fullness, salivation, sweetness, juiciness, richness, long lastingness and fattiness.
# [4] = Activa strawberry yoghurt; conditions: 2 ppm, full fat Activa strawberry flavoured yoghurt
# From the text: Activa Strawberry Yoghurt
# In a Full fat, Activa strawberry flavoured yoghurt C18:2-gaba
# [5] = Calve salad dressing low fat; conditions: 0.5 ppm
# From the text: Calve Salad Dressing Low Fat:
# Base is Calve salad dressing (market product)
# [6] = Comparison in a strawberry drink; conditions: 2 ppm, 7% sucrose, 0.1% citric acid, strawberry flavour 0.015%
# From the text: Comparison in a Strawberry Drink
# Base is 7% sucrose, 0.1% citric acid, and a proprietary strawberry flavour @0.015%
# Test in vanilla milk = conditions: 2 ppm, milk 0.15% fat, 4% sucrose, Vaniline flavour 10 ppm + vanilla ext. 0.03%
# From the text: Base: Milk 0.15% fat, sweetened with 4% sucrose by weight, flavoured with proprietary
# Vaniline flavour @ 10 ppm+Vanilla ext. @ 0.03%
# [7] = Test in pineapple flavoured drink; conditions: 1 ppm, water, 8% sugar, 0.1% citric acid, pineapple flavour 0.03%
# From the text: Test in Pineapple Flavoured Drink:
# Base is water, 8% sugar, 0.1% citric acid and proprietary pineapple flavour at 0.03%
structure (smiles),measurement,setting,value
CCCCC/C=C\C/C=C\CCCCCCCC(=O)NCCCC(=O)O [C18:2-gaba],tasting result (trained panelists),[1],"more mouthfeel, with a lingering creamy authentic butter taste"
same,taste of the chicken,"[2]; 450 gram chicken filet, 2 minutes high fire and 5 minutes medium fire","more juicy, succulent, lingering more white meat"
same,taste of the frying oil,[2]; after frying chicken filet,more savoury golden brown notes
same,description by expert tasters,[3]; yoghurt 0% fat,"less acdic, slight creamy aftertaste"
same,description by expert tasters,[3]; yoghurt 1.5% fat,"very creamy, thick, nice long lasting, whipped cream note"
same,description by expert tasters,[3]; yoghurt 3% fat,"less acidic, much more creamy, very long lasting creamy aftertaste"
same,taste description,[4],"very creamy, full and fresh strawberry"
same,taste description,[5],"much fuller, creamy, rich, less acidic"
same,taste description,[6],"fatty mouthfeel, creamy strawberry, fruity and juicy"
same,taste description,Test in vanilla milk,"fatty, long lasting authentic vanilla, vanilla bean taste is enhanced"
same,taste description,[7],"very ripe, jammy, long lasting and sweet"
